The values below come from patent publication US12187758B2 (ROME Therapeutics, Inc., priority 2022, dated 2025).

The structures appear in SMILES notation. pEC50, pIC50: −log10 of the molar value. Read-outs that look alike come from different tables or passages of the source. Bounds are passed on as bounds.

Common to all, as to assay type: cell-based
For assay [1], the system named is THP1-Dual KO-TREX1 cells. The experiment in a line: THP1 TREX1 KO inhibition assay (type 1 interferon response). The note with it: Homo sapiens, 144 h, type 1 interferon (QUANTI-LUC), 1 μM 5-aza-2′-deoxycytidine, six days. Summed up: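 THP1-Dual KO-TREX1 cells were treated with a dose titration of compound, alone or with 1 μM 5-aza-2′-deoxycytidine, for six days at 37 °C. Type 1 interferon was read as secreted luciferase (QUANTI-LUC) in the supernatant, and viability by CellTiter-Glo luminescence.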

A further assay deals with human PBMC. The assay is described as follows: Decitabine-stimulated human PBMC assay. The following applies: PBMCs, anti-CD3/anti-CD28, decitabine 10 μM, 5 days; FIGS. 3A and 3B. The procedure: EasySep buffer (32 mL, […] Technologies, cat. #20144) was used to dilute 8 mL of LRSC buffy coat (from fresh Leukopak) with gentle mixing. The diluted buffy coat (20 mL) was transferred into each of two SepMate 50 tubes, and the tubes were filled with 15 mL of Lyphoprep ([…], cat. #07851) density gradient. The SepMate tubes were then centrifuged at 1200 G for 10 minutes at room temperature with the brake on. The top layer of supernatant was collected in SepMate tubes by quickly pouring it into a new 50 mL conical tube. The PBMCs were washed with EasySep buffer×2 by centrifuging at 300 G for 5 minutes. The cells were resuspended in 30 mL of EasySep and centrifuged at 100 G for 5 minutes with the brake off, and the platelets were removed. The cells were then resuspended in 6 mL of 1×RBC lysis buffer (Invitrogen) and incubated at 37° C. for 5 minutes. 25 mL of EasySep buffer was then mixed into the tube and centrifuged at 300 G for 5 minutes. The cells were resuspended in 10 mL of EasySep buffer and the cells were then counted with Cellometer (AO/PI). The PBMCs were resuspended in RPMI1640 (ThermoFisher)+ 10% FBS (HyClone)+μ/s at 3×10^6/mL. The PBMCs (100 μL, 300 k PBMCs) were then seeded in a 96-well flat bottom microplate (Corning) that had been precoated with 100 μL of anti-CD3 antibody (10 μg/mL in PBS, Biolegend) or PBS at 4° C., one day before the assay was commenced.
To each well the following solutions were added 1) 100 μL of cells (final cell number per well is 3×10^5 cell/well); 2) 25 μL of anti-CD28 antibody at 6× (5 μg/mL final concentration, Biolegend); 3) 25 μL of decitabine at 6× (10 μM final concentration); and 4) Compound in DMSO was dispensed directly into each well with a d300e digital dispenser (Tecan). The final concentration of DMSO for each well was normalized to 0.3%. The plate was incubated at 37° C. without any agitation for 5 days. Samples were collected 120 hours after incubation to determine IFN-β […] levels using a U-PLEX Human IFN-β Assay Sector (5PL) (MSD, cat. #K151VIK-2).
After 5 days, the plate was spun down at 100×G for 5 minutes. Supernatants (100 μL) were collected for interferon R (IFN-0) analysis using the MSD assay noted above, and any residual supernatant was stored at −80° C.

A short description of assay [2]: Mitochondria toxicity assay with PC3 cells, in-cell ELISA COX-1. The note with it: 5 days treatment. The method in brief:
(§1)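 This in-cell ELISA was run on fixed, permeabilized PC3 cells after 5-day exposure to titrated compound, with cytotoxicity measured on a duplicate plate. Results are reported as categories A (<1.0 μM) to E (>100.0 μM).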
For orientation: An ELISA detects its analyte on a solid surface through an enzyme-linked reagent.

Assay [3] deals with SDH-A (succinate dehydrogenase-A). The assay is described as follows: Mitochondria toxicity assay with PC3 cells, in-cell ELISA SDH-A. The following applies: 5 days treatment. Summed up:
as §1

In a further assay the test system is PC3 cells. The assay is described as follows: Mitochondria toxicity assay with PC3 cells, cytotoxicity (Cell Titer Glo). The note with it: Homo sapiens, PC-3, 120 h, 5 days treatment. The method in brief: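 PC3 cells in F-12K with 10% FBS exposed to a compound dose titration for 5 days at 37° C, 5% CO2. Viability by Cell Titer Glo luminescence after 30 min at room temperature; values binned A (<1.0 μM) to E (>100.0 μM).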
(In ATP-based viability assays light output follows the ATP content of the culture.)

For a further assay, the system named is 7S mitochondria DNA. The experiment in a line: Mitochondria DNA assay with PC3 cells. The following applies: Homo sapiens, PC-3, 120 h, 5 days, 7S mitochondria DNA level by qPCR relative to 18S or GAPDH. The procedure:
Exemplary compounds were tested for their effect on levels of 7S mitochondria DNA, and the DNA of housekeeping genes 18S and GAPDH. Reduction of 7S mitochondria DNA indicates off-target inhibition of mitochondrial DNA synthesis, which leads to mitochondrial toxicity. Assay procedures and results are described below.
PC3 cells were purchased from ATCC and cultured in F-12 Kaighn's modified medium (Hyclone), 10% heat-inactivated fetal bovine serum (Gibco), 1% Penicillin-Streptomycin (Invitrogen). PC3 cells were treated with a dose titration of a test compound on 6 well plates for 5 days at 37° C., 5% CO2 in a humidified incubator.
Cells were harvested and mitochondria DNA extraction was performed using DNeasy Blood & Tissue Kit (Qiagen) according to the manufacture's instruction.
Mitochondria 7S and housekeeping genes 18S and GAPDH DNA was quantified by multiplex qPCR with the PowerUp™ SYBR™ Green system (Applied Biosystems). Prepare reaction mix consisting of 5 μl of 2× PowerUp™ SYBR™ Green Master Mix, 1 μl of 5 μM Primers for 7S, 18S, or GAPDH, 4 μl of DNA template from DNA extraction above. The primer sequences are below:
qPCR was performed on QuantStudio™ 7 Flex RealTime qPCR system (Applied Biosystems) as set forth below: • a. 50° C. for 2 minutes, then • b. 95° C. for 2 minutes, then • c. 95° C. for 15 seconds, then • d. 60° C. for 60 seconds, • where then steps (c) and (d) were repeated 60 times.
Threshold was calculated by QuantStudio™ 7 Flex Software (ThermoFisher Scientific) using the default settings. Ct values were used to evaluate the relative mitochondria DNA (mtDNA) level using the following formula: ΔCt=Ct (7S target gene)−Ct (18S) or ΔCt=Ct (7S target gene)−Ct (GAPDH). Relative mtDNA level=2^−Δct. Expression fold over DMSO control=2^−Δct (compound treated group)/2^−Δct (DMSO group)
In the table “A” represents values≤0.1 μM; “B” represents values from >0.1 μM to ≤1.0 μM; “C” represents values from >1.0 μM to ≤10.0 μM; “D” represents values from >10.0 μM to ≤100.0 μM; and “E” represents values>100.0 μM.
On the technique in general: Quantitative PCR measures a nucleic acid by following its amplification.

In assay [4] the test system is THP1-Dual KO-TREX1 cells. The experiment in a line: THP1 TREX1 KO inhibition assay, combination dosing. The following applies: Homo sapiens, THP1-Dual, read-out: EC50 of Stampidine. The procedure: Exemplary compounds were tested to determine the effect of combined dosing of two compounds on the type 1 interferon response in THP1 Dual TREX1 KO cells treated with 5-aza-2′-deoxycytidine. Assay procedures and results are described below.
THP1 Dual TREX1 KO cells were purchased from InvivoGen. The THP1-Dual™ KO-TREX1 cells were cultured in RPMI 1640, 10% heat-inactivated fetal bovine serum, 25 mM HEPES, 10 μg/mL blasticidin, and 100 μg/mL Zeocin. THP1-Dual™ KO-TREX1 cells were treated with a dose titration of test compound in the presence of 1 μM 5-aza-2′-deoxycytidine (Sigma, cat #189825). Type 1 Interferon and cell viability were assessed after five days of treatment.
Stock solution of test compounds stampidine and Compound 2 were prepared in DMSO followed by a three-fold dilution in DMSO. The plate was prepared with a matrix of test compound concentrations, with stampidine on the y-axis (final concentrations 3 μM to 0.0003 μM) and Compound 2 on the x-axis (final concentrations 0.3 μM to 0.00003 μM). Additional 50× dilution was prepared in cell culture media for each dilution. 10 μL of diluted test compound was then added to a 384-well plate.
THP1-Dual™ KO-TREX1 cells were treated with 1 μM 5-aza-2′-deoxycytidine. THP1-Dual™ KO-TREX1 cells (50 μL) were added to each well of the 384-well plate containing test compound titration at 10,000 cells/well. Cells were incubated at 37° C., 5% CO2 in a humidified incubator for five days. On day five, 20 μL of cell supernatant was transferred to a 384-well, white-walled plate, followed by addition to each well of 50 μL of QUANTI-LUC solution containing stabilizer. Luminescence was detected on a plate reader according to manufacturer's instructions. Percent inhibition of interferon was calculated using the following analysis: (Average DMSO-Sample)/(Average DMSO-Average 30 μM stampidine)*100.
The remaining cells were assessed for cell viability by adding 30 μl of CellTiter-Glo (Promega, G9683) solution to each well, and placed on a shaker for 10 minutes at room temperature. Luminescence was detected on a plate reader, according to manufacturer's instructions. Percent inhibition of cell viability using CellTiter-Glo was calculated using the following analysis: (Average DMSO−Sample)/(Average DMSO−Average 20 μM viability control reagent)*100.
Combination analysis was performed using the Bivariate Response to Additive Interacting Doses (BRAID) according to Twarog, N. R., et al. Scientific Reports 6:25523 (DOI: 10.1038/srep25523). The best BRAID fit was determined to be k 2.00 (0.583-3.64), where k>0 denotes synergy, k=0 denotes additivity, and k<0 denotes antagonism. Potentiation modeling curves are provided for potentiation of Compound 2 at four concentrations of stampidine (FIG. 7A) and for potentiation of stampidine at four concentrations of Compound 2 (FIG. 7B).

What is called pIC50 is the IC50 on a negative log10 scale, so that one unit is a factor of ten. Lower therefore signals a high IC50. The term pEC50 denotes −log10 of the EC50, conventionally taken in molar units.

For `C#C[C@]1(CO)O[C@@H](n2cnc3c(N)nc(F)nc32)C[C@@H]1O` [Compound 23, (2R,3S,5R)-5-(6-amino-2-fluoro-9H-purin-9-yl)-2-ethynyl-2-(hydroxymethyl) tetrahydrofuran-3-ol], the pIC50 is less than 6.00 in the assay on THP1-Dual KO-TREX1 cells [1], 4.30 to 5.00 in assay [2], 4.00 to 4.30 in assay [3] and 4.30 to 5.00 in the assay on PC3 cells. For the same compound, the IFN-β production result in the assay on human PBMC is recorded as “activated production of IFN-β”.

Consider `CC[C@]1(CO)O[C@@H](n2cc(F)c(N)nc2=O)[C@@H](F)[C@@H]1O` [Compound 77, 4-amino-1-[(2R,3S,4R,5R)-5-ethyl-3-fluoro-4-hydroxy-5-(hydroxymethyl)oxolan-2-yl]-5-fluoropyrimidin-2-one], for which the pIC50 is less than 6.00 in the assay with THP1-Dual KO-TREX1 cells [1]; less than 4.00 in assay [2]; less than 4.00 in assay [3]; less than 4.00 in the assay on PC3 cells; less than 4.00 in the assay on 7S mitochondria DNA.

For `Nc1nc(=O)n([C@@H]2O[C@@](CO)(CBr)[C@@H](O)[C@@H]2F)cc1F` [Compound 86, 4-amino-1-[(2R,3S,4R,5R)-5-(bromomethyl)-3-fluoro-4-hydroxy-5-(hydroxymethyl)oxolan-2-yl]-5-fluoropyrimidin-2-one], the pIC50 with THP1-Dual KO-TREX1 cells [1] is less than 6.00; in assay [2], less than 4.00; in assay [3], less than 4.00; with PC3 cells it was less than 4.00; with 7S mitochondria DNA, less than 4.00.

As to `C#C[C@]1(CO)O[C@@H](n2cc(F)c(N)nc2=O)[C@@H](O)[C@@H]1O` [Compound 116, 4-amino-1-((2R,3S,4S,5R)-5-ethynyl-3,4-dihydroxy-5-(hydroxymethyl)tetrahydrofuran-2-yl)-5-fluoropyrimidin-2(1H)-one], the pIC50 in the assay with THP1-Dual KO-TREX1 cells [1] was less than 6.00; in assay [2], less than 4.00; in assay [3], less than 4.00; with PC3 cells, less than 4.00; in the assay with 7S mitochondria DNA it was less than 4.00.

As for `[N-]=[N+]=N[C@]1(CO)O[C@@H](c2cc(I)c3c(N)ncnn23)C[C@@H]1O` [Compound 161, (2R,3S,5R)-5-(4-amino-5-iodopyrrolo[2,1-f][1,2,4]triazin-7-yl)-2-azido-2-(hydroxymethyl)tetrahydrofuran-3-ol], the pIC50 in the assay with THP1-Dual KO-TREX1 cells [1] is 7.00 to 7.30; in assay [2], 5.00 to 6.00; in assay [3], 5.00 to 6.00; with PC3 cells, 5.00 to 6.00; in the assay on 7S mitochondria DNA it was less than 4.00.

With `CC(C)C(=O)OC[C@@]1(CCl)O[C@@H](n2cc(F)c(N)nc2=O)[C@@H](F)[C@@H]1OC(=O)C(C)C` [Compound 173, (2R,3R,4S,5R)-5-(4-amino-5-fluoro-2-oxopyrimidin-1(2H)-yl)-2-(chloromethyl)-4-fluoro-2-((isobutyryloxy)methyl) tetrahydrofuran-3-yl isobutyrate], the pIC50 in the assay on THP1-Dual KO-TREX1 cells [1] was less than 6.00; in assay [2] it was 4.00 to 4.30; in assay [3] it was less than 4.00; with PC3 cells it was less than 4.00; in the assay with 7S mitochondria DNA it was less than 4.00.

With `COC(=O)C(C)NP(=O)(OC[C@@H]1C=C[C@H](n2cc(C)c(=O)[nH]c2=O)O1)Oc1ccc(Br)cc1` (stereo partly shown) [Stampidine, stampidine, reference compound], the pEC50 in the assay with THP1-Dual KO-TREX1 cells [4] (Compound 2 0 μM) is 6.94; in the assay with THP1-Dual KO-TREX1 cells [4] (Compound 2 0.0001 μM), 6.99; in the assay with THP1-Dual KO-TREX1 cells [4] (Compound 2 0.001 μM) it was 7.10; in the assay on THP1-Dual KO-TREX1 cells [4] (Compound 2 0.01 μM), 7.54.
